Where two headings read alike, the source gives them in different places.
Tests used:
[1] = target: PARP-2 (Homo sapiens (Human), UniProt Q9UGN5); conditions: read-out: PARP-2 (DC50); probe compound P1
Description: (§1) Affinity evaluation of the tested compounds and their selectivity with respect to the different PARP isoforms of interest was assessed in a displacement assay.
(§2) The polarization signal can be measured, e.g., by a plate reader such as the Saphire2 (Tecan). The displacement ability of the test compound is in correlation with the compound affinity for the NAD pocket of the enzyme.
(§3) In all of the experiments, the polarization signal was measured using a Saphire2 plate reader (Tecan). Data analysis was performed using Dynafit software. In particular, titration data were fitted to the following equilibria: Enzyme+probe<==>Complex Enzyme-probe, while displacement data were fitted to the following equilibria: Enzyme+probe<==>Complex Enzyme-probe, Enzyme+Compound<==>Complex Enzyme-Compound, whereby binding of probe and compound on the enzyme are mutually exclusive (pure competitive mechanism). Displacement data were also fitted using Excell spreadsheet (Microsoft Inc. Seattle, USA) to a four parameter logistic model (4PL), or Hill-Slope model to calculate DC50s where the DC50 value represents the compound concentration at which the polarization signal is diminished by 50% compared to untreated controls.
(§4) In agreement, affinity binding constants (KD) were determined by fitting with a pure competitive mechanism. KD values, are the average of three independent experiments.

[2] = system: PAR formation in HeLa cells; assay: cells; conditions: Homo sapiens, read-out: PAR assay (IC50)
Description: Cellular PAR levels were measured by immunocytochemistry, and quantified using an ArrayScan vTi instrument (Cellomics Thermo Scientific). […] Test compounds were then added at the required concentration for 30'. […] After 3 washes in PBS, wells incubated in PBS (w/v) 5% FBS 0.05% Tween20 containing 2 μg/mL Cy2-conjugated Goat anti mouse secondary antibody (Amersham Pharmacia Biotech cat. […] At least 10 fields, corresponding to at least 900 cells, were read for each well. […] X is the logarithm of concentration. IC50 is the response; IC50 starts at Bottom and goes to Top with a sigmoid shape.

[3] = target: PARP-3 (Homo sapiens (Human), UniProt Q9Y6F1); conditions: read-out: PARP-3 (DC50); probe compound P1
Description: as §1, §2, §3, §4

[4] = target: T1, PARP-1 (Homo sapiens (Human), UniProt P09874); conditions: for DC50: read-out: PARP-1 (DC50); for Kd: read-out: PARP-1 (Kd)
T1 sequence (P09874 whole entry): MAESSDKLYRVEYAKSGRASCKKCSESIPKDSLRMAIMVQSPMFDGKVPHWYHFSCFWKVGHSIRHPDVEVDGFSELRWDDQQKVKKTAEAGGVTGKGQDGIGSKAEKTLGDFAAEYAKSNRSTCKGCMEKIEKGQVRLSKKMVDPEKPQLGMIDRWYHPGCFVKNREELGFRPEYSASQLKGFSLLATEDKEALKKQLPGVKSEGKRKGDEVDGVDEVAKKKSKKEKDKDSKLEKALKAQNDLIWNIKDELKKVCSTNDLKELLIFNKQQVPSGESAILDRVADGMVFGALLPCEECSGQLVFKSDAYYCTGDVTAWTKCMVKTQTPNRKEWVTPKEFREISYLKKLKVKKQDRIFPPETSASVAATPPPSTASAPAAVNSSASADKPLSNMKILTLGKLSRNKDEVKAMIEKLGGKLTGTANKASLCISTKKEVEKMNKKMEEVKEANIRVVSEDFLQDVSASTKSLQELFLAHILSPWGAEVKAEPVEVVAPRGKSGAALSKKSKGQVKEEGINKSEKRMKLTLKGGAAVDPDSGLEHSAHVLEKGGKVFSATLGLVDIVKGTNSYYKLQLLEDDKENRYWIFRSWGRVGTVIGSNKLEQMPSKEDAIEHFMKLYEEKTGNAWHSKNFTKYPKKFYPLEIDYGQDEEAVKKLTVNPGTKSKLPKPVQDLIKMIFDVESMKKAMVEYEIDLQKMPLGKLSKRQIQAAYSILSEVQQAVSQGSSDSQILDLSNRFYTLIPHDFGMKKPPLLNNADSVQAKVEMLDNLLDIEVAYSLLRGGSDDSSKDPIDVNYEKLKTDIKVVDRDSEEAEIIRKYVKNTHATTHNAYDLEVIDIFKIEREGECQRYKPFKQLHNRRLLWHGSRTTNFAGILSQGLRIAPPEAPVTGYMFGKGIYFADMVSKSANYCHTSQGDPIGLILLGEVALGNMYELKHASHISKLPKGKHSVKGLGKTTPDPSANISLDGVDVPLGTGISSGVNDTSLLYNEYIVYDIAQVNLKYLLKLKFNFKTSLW
Description: as §1, §2, §3, §4

[5] = target: T1, PARP-1; assay: biochemical; conditions: PARP-1 (Kd)
Description: as §1, §2, §3, §4

[6] = male, Balb, Nu/Nu, mouse, in vivo, 10 mg/kg
Description: (§5) The compounds were formulated in 10% tween 80/dextrose for intravenous bolus administration while oral administrations were performed using the compounds formulated in 0.5% methylcellulose. […] Plasma samples were prepared by plasma proteins precipitation adding 200 μL of methanol to 10 μL of plasma in a 96 well plate. […] The supernatant was considered as final extract and injected onto the LC-MS-MS system (HPLC system: Hewlett Packard 1100 series using Atlantis HILIC Silica 50*2.1 mm 5.0 μm analytical column; MS instrument: Perkin Elmer SCIEX API 2000 and ionization performed with Turbo Ion Spray in positive ion mode). Lower limit of quantification is 5.0 ng/mL, upper limit of quantification is 10000 ng/mL. Analysis was performed using the Watson package (version 6.4.0.04) and Excel spreadsheet (Microsoft Inc. Seattle, USA). Non-compartmental method (linear trapezoidal rule and linear regression analysis of natural log-transformed plasma concentrations vs. time data) was used. After intravenous dosing, Co was set equal to Co 083 Absolute bioavailability (F) was calculated from the ratio of average oral to IV (intravenous) dose-normalized plasma AUC (area under curve) values.

[7] = in vivo; conditions: male, Balb, Nu/Nu, mouse, 10 mg/kg; for Vd / clearance: iv; for AUC(0-t) / half-life: po
Description: as §5

[8] = system: Capan-1 human pancreatic cancer tumors; assay: In vivo efficacy, Capan-1 BRCA-2 mutated mouse model, single agent; parameters: species or system Balb, athymic Nu/Nu male mice; conditions: oral
Excerpt: (§6) Balb, athymic Nu/Nu male mice, from Harlan (Italy), were maintained in agreement with the European Communities Council Directive no. 86/609/EEC concerning the protection of animals used for experimental or other scientific purposes, in cages with paper filter cover, food and bedding sterilized and acidified water. Fragments of Capan-1 human pancreatic cancer tumors were implanted subcutaneously. […] Each group included seven animals. The treatment started one day after randomization. Compound of formula (I) was administered by oral route as a methocel suspension at the indicated doses and times. Tumor dimension was measured regularly by calipers during the experiments and tumor mass was calculated as described in Simeoni M. et al., Cancer Res 64, 1094-1101 (2004).

[9] = male, Balb, athymic Nu/Nu, mouse, in vivo, po
Excerpt: as §6

[10] = system: ovarian cancer patients with confirmed BRCA-1 mutations; conditions: phase I, monotherapy, preliminary data; cited from earlier work

Chain of PARP-2 (Q9UGN5 whole entry): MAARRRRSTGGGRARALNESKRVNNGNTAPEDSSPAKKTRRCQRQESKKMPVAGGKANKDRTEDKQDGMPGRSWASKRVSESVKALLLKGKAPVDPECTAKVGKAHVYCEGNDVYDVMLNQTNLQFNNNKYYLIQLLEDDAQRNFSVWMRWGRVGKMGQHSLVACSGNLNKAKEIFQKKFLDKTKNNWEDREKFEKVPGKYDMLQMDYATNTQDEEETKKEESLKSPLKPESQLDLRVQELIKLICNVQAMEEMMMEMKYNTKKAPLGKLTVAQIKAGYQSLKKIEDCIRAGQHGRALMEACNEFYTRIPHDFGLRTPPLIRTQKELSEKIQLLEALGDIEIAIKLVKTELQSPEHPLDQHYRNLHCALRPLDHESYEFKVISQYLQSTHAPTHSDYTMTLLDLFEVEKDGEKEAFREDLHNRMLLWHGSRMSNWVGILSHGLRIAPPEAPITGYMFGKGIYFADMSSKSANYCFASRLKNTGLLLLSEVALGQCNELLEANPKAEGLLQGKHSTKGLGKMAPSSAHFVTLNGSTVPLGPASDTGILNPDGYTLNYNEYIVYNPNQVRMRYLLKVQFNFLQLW
Chain of PARP-3 (Q9Y6F1 whole entry): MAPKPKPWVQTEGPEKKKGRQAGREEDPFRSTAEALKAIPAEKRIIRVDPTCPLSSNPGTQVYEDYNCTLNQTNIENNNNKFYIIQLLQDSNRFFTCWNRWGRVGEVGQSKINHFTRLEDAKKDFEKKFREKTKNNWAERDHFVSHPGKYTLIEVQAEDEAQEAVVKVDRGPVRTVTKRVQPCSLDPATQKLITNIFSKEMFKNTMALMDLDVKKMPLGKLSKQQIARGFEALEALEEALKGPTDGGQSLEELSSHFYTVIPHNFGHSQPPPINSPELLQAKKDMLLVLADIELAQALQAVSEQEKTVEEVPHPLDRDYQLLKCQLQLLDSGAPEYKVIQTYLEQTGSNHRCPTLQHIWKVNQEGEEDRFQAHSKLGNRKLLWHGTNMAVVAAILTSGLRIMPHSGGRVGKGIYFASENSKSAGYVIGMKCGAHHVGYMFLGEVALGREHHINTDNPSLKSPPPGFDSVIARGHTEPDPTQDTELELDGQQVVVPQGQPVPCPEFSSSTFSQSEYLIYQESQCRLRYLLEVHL

SMILES	DC50 [1] [nM]	IC50 [2] [nM]	DC50 [3] [nM]	DC50 ([4]; probe compound P1) [nM]	Kd ([4]; probe compound P3) [nM]	other results
C[C@@H]1c2cccc(C(N)=O)c2C(=O)N1C1CCN(C2CCCCC2)CC1 [Compound 5, (1R)-2-(1-Cyclohexylpiperidin-4-yl)-1-methyl-3-oxo-2,3-dihydro-1H-isoindole-4-carboxamide]	> 10000	6300	> 10000			DC50 [4]: 2110 nM; Kd [4]: 780 nM
CC1c2cccc(C(N)=O)c2C(=O)N1C1CCN(C2CCCCC2)CC1 (racemic) [Compound 3, 2-(1-Cyclohexylpiperidin-4-yl)-1-methyl-3-oxo-2,3-dihydro-1H-isoindole-4-carboxamide]	> 10000	280	> 10000			Kd [5]: < 10 nM; C-max (oral) [6]: 2.53 µM; Vd [7]: 3.61 L/kg; clearance [7]: 32.6 mL/min/kg; AUC(0-t) [7]: 13.5 µM·h; half-life [7]: 3.04 h; Max TGI (%) ([8]; 100 mg/kg, schedule 1-10 daily): 51%; Toxicity (body weight reduction, mice affected out of 7 treated) ([9]; 100 mg/kg): 0/7; DC50 [4]: < 250 nM
CC1c2cccc(C(N)=O)c2C(=O)N1c1ccc(N2CCCCC2)cc1 (stereo not drawn) [Compound 36, 1-Methyl-3-oxo-2-[4-(piperidin-1-yl)phenyl]-2,3-dihydro-1H-isoindole-4-carboxamide]	> 10000	9000	> 10000	< 250	80	
C[C@H]1c2cccc(C(N)=O)c2C(=O)N1C1CCN(C2CCCCC2)CC1 [Compound 4, (1S)-2-(1-Cyclohexylpiperidin-4-yl)-1-methyl-3-oxo-2,3-dihydro-1H-isoindole-4-carboxamide]	> 10000	150	> 10000			Kd [5]: < 10 nM; C-max (oral) [6]: 1.37 µM; Vd [7]: 6.8 L/kg; clearance [7]: 53.4 mL/min/kg; AUC(0-t) [7]: 4.93 µM·h; half-life [7]: 2.62 h; Max TGI (%) ([8]; 75 mg/kg, schedule 1-10 daily): 52%; Toxicity (body weight reduction, mice affected out of 7 treated) ([9]; 75 mg/kg): 0/7; DC50 [4]: < 250 nM
CC1c2cccc(C(N)=O)c2C(=O)N1c1ccc(CN2CCCCC2)cc1 (stereo not drawn) [Compound 38, 1-Methyl-3-oxo-2-[4-(piperidin-1-ylmethyl)phenyl]-2,3-dihydro-1H-isoindole-4-carboxamide]	> 10000	5300	> 10000	1110		
CC1c2cccc(C(N)=O)c2C(=O)N1C1CCN(Cc2cccs2)CC1 (stereo not drawn) [Compound 20, 1-Methyl-3-oxo-2-[1-(thiophen-2-ylmethyl)piperidin-4-yl]-2,3-dihydro-1H-isoindole-4-carboxamide]	> 10000		3860	< 250		Kd ([5]; probe compound P3): < 10 nM
CC1(C)c2cc(F)cc(C(N)=O)c2C(=O)N1C1CCN(C2CCCCC2)CC1 [Compound 128, 2-(1-Cyclohexylpiperidin-4-yl)-6-fluoro-1,1-dimethyl-3-oxo-2,3-dihydro-1H-isoindole-4-carboxamide]	> 10000	4000	> 10000	5660	870	
CC1c2cccc(C(N)=O)c2C(=O)N1C1CCN(C2CCC2)CC1 (stereo not drawn) [Compound 18, 2-(1-Cyclobutylpiperidin-4-yl)-1-methyl-3-oxo-2,3-dihydro-1H-isoindole-4-carboxamide]	1820	2700	> 10000	< 250		Kd ([5]; probe compound P3): < 10 nM; C-max (oral) [6]: 3.9 µM; Vd [7]: 3.84 L/kg; clearance [7]: 47 mL/min/kg; AUC(0-t) [7]: 7.28 µM·h; half-life [7]: 1.8 h
CC1c2cccc(C(N)=O)c2C(=O)N1C1CCN(Cc2cn(C(C)C)c3ccccc23)CC1 (stereo not drawn) [Compound 8, 1-Methyl-3-oxo-2-(1-{[1-(propan-2-yl)-1H-indol-3-yl]methyl}piperidin-4-yl)-2,3-dihydro-1H-isoindole-4-carboxamide]	> 10000		3100	440	250	
CC1c2cc(F)cc(C(N)=O)c2C(=O)N1C1CCN(C2CCCCC2)CC1 (stereo not drawn) [Compound 127, 2-(1-Cyclohexylpiperidin-4-yl)-6-fluoro-1-methyl-3-oxo-2,3-dihydro-1H-isoindole-4-carboxamide]	> 10000	640	> 10000	410	60	
CC1c2cccc(C(N)=O)c2C(=O)N1C1CCN(Cc2ccco2)CC1 (stereo not drawn) [Compound 15, 2-[1-(Furan-2-ylmethyl)piperidin-4-yl]-1-methyl-3-oxo-2,3-dihydro-1H-isoindole-4-carboxamide]	> 10000		> 10000	< 250	40	
CC1c2cccc(C(N)=O)c2C(=O)N1C1CCN(Cc2ncc[nH]2)CC1 (stereo not drawn) [Compound 26, 2-[1-(1H-Imidazol-2-ylmethyl)piperidin-4-yl]-1-methyl-3-oxo-2,3-dihydro-1H-isoindole-4-carboxamide]	6880		2830	< 250	70	
CC1c2cccc(C(N)=O)c2C(=O)N1C1CCN(C2CCC(F)(F)CC2)CC1 (stereo not drawn) [Compound 6, 2-[1-(4,4-Difluorocyclohexyl)piperidin-4-yl]-1-methyl-3-oxo-2,3-dihydro-1H-isoindole-4-carboxamide]	> 10000	1300	> 10000	< 250	30	
CC1c2cccc(C(N)=O)c2C(=O)N1C1CCN(Cc2ccc3[nH]ccc3c2)CC1 (stereo not drawn) [Compound 7, 2-[1-(1H-indol-5-ylmethyl)piperidin-4-yl]-1-methyl-3-oxo-2,3-dihydro-1H-isoindole-4-carboxamide]	> 10000	7000	520	< 250	30	
CC1c2cccc(C(N)=O)c2C(=O)N1C1CCN(CC2CC=CCC2)CC1 (stereo not drawn) [Compound 22, 2-[1-(Cyclohex-3-en-1-ylmethyl)piperidin-4-yl]-1-methyl-3-oxo-2,3-dihydro-1H-isoindole-4-carboxamide]	> 10000		> 10000	< 250	40	
CC1c2cc(F)cc(C(N)=O)c2C(=O)N1C1CCN(C2CCC(F)(F)CC2)CC1 (stereo not drawn) [Compound 126, 2-[1-(4,4-Difluorocyclohexyl)piperidin-4-yl]-6-fluoro-1-methyl-3-oxo-2,3-dihydro-1H-isoindole-4-carboxamide]	> 10000	270	> 10000	< 250		
CC1c2cccc(C(N)=O)c2C(=O)N1C1CCN(Cc2ccccn2)CC1 (stereo not drawn) [Compound 9, 1-Methyl-3-oxo-2-[1-(pyridin-2-ylmethyl)piperidin-4-yl]-2,3-dihydro-1H-isoindole-4-carboxamide]	> 10000	3000	> 10000	350	170	
CC1c2cccc(C(N)=O)c2C(=O)N1C1CCN(Cc2ccc[nH]2)CC1 (stereo not drawn) [Compound 19, 1-Methyl-3-oxo-2-[1-(1H-pyrrol-2-ylmethyl)piperidin-4-yl]-2,3-dihydro-1H-isoindole-4-carboxamide]	> 10000	2500	3040	< 250	20	C-max (oral) [6]: 2.85 µM; Vd [7]: 3.9 L/kg; clearance [7]: 88 mL/min/kg; AUC(0-t) [7]: 4.28 µM·h; half-life [7]: 0.8 h
O=C(c1cc(Cc2n[nH]c(=O)c3ccccc23)ccc1F)N1CCN(C(=O)C2CC2)CC1 [AZD2281]						partial responses [10]: 4 out of 10
CC1c2cccc(C(N)=O)c2C(=O)N1c1ccc(N2CCOCC2)cc1 (stereo not drawn) [Compound 35, 1-Methyl-2-[4-(morpholin-4-yl)phenyl]-3-oxo-2,3-dihydro-1H-isoindole-4-carboxamide]	> 10000	4900	> 10000	< 250	40	
CC1c2cccc(C(N)=O)c2C(=O)N1C1CCN(CC2CCCCC2)CC1 (stereo not drawn) [Compound 21, 2-[1-(Cyclohexylmethyl)piperidin-4-yl]-1-methyl-3-oxo-2,3-dihydro-1H-isoindole-4-carboxamide]	> 10000	1200	> 10000			C-max (oral) [6]: 1.2 µM; Vd [7]: 4.9 L/kg; clearance [7]: 23 mL/min/kg; AUC(0-t) [7]: 7.39 µM·h; half-life [7]: 6.6 h; Max TGI (%) ([8]; 100 mg/kg, schedule 1-20 daily): 23%; Toxicity (body weight reduction, mice affected out of 7 treated) ([9]; 100 mg/kg): 0/7
CC1c2cccc(C(N)=O)c2C(=O)N1C1CCN(C2CCCC2)CC1 (stereo not drawn) [Compound 13, 2-(1-Cyclopentylpiperidin-4-yl)-1-methyl-3-oxo-2,3-dihydro-1H-isoindole-4-carboxamide]	1460	500	> 10000	< 250	50	C-max (oral) [6]: 3.64 µM; Vd [7]: 4.7 L/kg; clearance [7]: 26.7 mL/min/kg; AUC(0-t) [7]: 18.3 µM·h; half-life [7]: 2.9 h; Max TGI (%) ([8]; 100 mg/kg, schedule 1-20 daily): 18%; Toxicity (body weight reduction, mice affected out of 7 treated) ([9]; 100 mg/kg): 0/7
